Active and inactive are the calls of the source. No cut-off for these calls is given here.
Columns and labels:
[1] = test system: H9c2; assay: Cardioprotective activity against OGD/R-induced cell injury in rat H9c2 cells assessed as increase in cell viability at 20 uM subjected to OGD condition for 6 hrs followed by compound treatment and measured after 6 hrs by MTT assay relative to control; type: functional
[2] = test system: H9c2; assay: Induction of apoptosis in OGD/R-induced rat H9c2 cells assessed as total apoptotic cells at 5 uM preincubated with compound for 24 hrs followed by treatment under OGD condition by Annexin V-FITC staining based flow cytometric analysis relative to control; type: functional
[3] = test system: H9c2; assay: Induction of apoptosis in OGD/R-induced rat H9c2 cells assessed as necrotic cells at 5 uM preincubated with compound followed by treatment under OGD condition by Annexin V-FITC staining based flow cytometric analysis (reference value: 1.01%); type: functional
[4] = test system: H9c2; assay: Cardioprotective activity against OGD/R-induced cell injury in rat H9c2 cells assessed as increase in cell viability at 5 uM subjected to OGD condition for 6 hrs followed by compound treatment and measured after 6 hrs by MTT assay relative to control; type: functional
[5] = test system: H9c2; assay: Induction of apoptosis in OGD/R-induced rat H9c2 cells assessed as viable cells at 10 uM preincubated with compound followed by treatment under OGD condition by Annexin V-FITC staining based flow cytometric analysis (reference value: 93.9%); type: functional; settings: read-out: Activity
[6] = test system: H9c2; assay: Induction of apoptosis in OGD/R-induced rat H9c2 cells assessed as total apoptotic cells at 10 uM preincubated with compound for 24 hrs followed by treatment under OGD condition by Annexin V-FITC staining based flow cytometric analysis relative to control; type: functional
[7] = test system: H9c2; assay: Induction of apoptosis in OGD/R-induced rat H9c2 cells assessed as late apoptotic cells at 10 uM preincubated with compound followed by treatment under OGD condition by Annexin V-FITC staining based flow cytometric analysis (reference value: 4.14%); type: functional
[8] = test system: H9c2; assay: Induction of apoptosis in OGD/R-induced rat H9c2 cells assessed as late apoptotic cells at 5 uM preincubated with compound followed by treatment under OGD condition by Annexin V-FITC staining based flow cytometric analysis (reference value: 4.14%); type: functional
[9] = test system: H9c2; assay: Induction of apoptosis in OGD/R-induced rat H9c2 cells assessed as early apoptotic cells at 5 uM preincubated with compound followed by treatment under OGD condition by Annexin V-FITC staining based flow cytometric analysis (reference value: 0.97%); type: functional
[10] = test system: H9c2; assay: Induction of apoptosis in OGD/R-induced rat H9c2 cells assessed as early apoptotic cells at 10 uM preincubated with compound followed by treatment under OGD condition by Annexin V-FITC staining based flow cytometric analysis (reference value: 0.97%); type: functional
[11] = test system: H9c2; assay: Induction of apoptosis in OGD/R-induced rat H9c2 cells assessed as necrotic cells at 10 uM preincubated with compound followed by treatment under OGD condition by Annexin V-FITC staining based flow cytometric analysis (reference value: 1.01%); type: functional
[12] = test system: H9c2; assay: Induction of mitochondrial membrane potential loss in OGD/R-induced rat H9c2 cells assessed as increase in red to green fluorescence ratio by JC-1 staining based microscopic analysis relative to control; type: functional
[13] = test system: H9c2; assay: Induction of apoptosis in OGD/R-induced rat H9c2 cells assessed as viable cells at 5 uM preincubated with compound followed by treatment under OGD condition by Annexin V-FITC staining based flow cytometric analysis (reference value: 93.9%); type: functional; settings: read-out: Activity
[14] = test system: H9c2; assay: Cardioprotective activity against OGD/R-induced cell injury in rat H9c2 cells assessed as increase in cell viability at 20 uM subjected to OGD condition for 6 hrs followed by compound treatment and measured after 6 hrs by MTT assay; type: functional, cell-based
[15] = test system: H9c2; assay: Induction of apoptosis in OGD/R-induced rat H9c2 cells assessed as necrotic cells at 100 uM preincubated with compound followed by treatment under OGD condition by Annexin V-FITC staining based flow cytometric analysis (reference value: 1.01%); type: functional
[16] = test system: H9c2; assay: Cardioprotective activity against OGD/R-induced cell injury in rat H9c2 cells assessed as increase in cell viability at 100 uM subjected to OGD condition for 6 hrs followed by compound treatment and measured after 6 hrs by MTT assay relative to control; type: functional
[17] = test system: H9c2; assay: Induction of apoptosis in OGD/R-induced rat H9c2 cells assessed as early apoptotic cells at 100 uM preincubated with compound followed by treatment under OGD condition by Annexin V-FITC staining based flow cytometric analysis (reference value: 0.97%); type: functional
[18] = test system: H9c2; assay: Induction of apoptosis in OGD/R-induced rat H9c2 cells assessed as late apoptotic cells at 100 uM preincubated with compound followed by treatment under OGD condition by Annexin V-FITC staining based flow cytometric analysis (reference value: 4.14%); type: functional
[19] = test system: H9c2; assay: Induction of apoptosis in OGD/R-induced rat H9c2 cells assessed as viable cells at 100 uM preincubated with compound followed by treatment under OGD condition by Annexin V-FITC staining based flow cytometric analysis (reference value: 93.9%); type: functional; settings: read-out: Activity
[20] = test system: H9c2; assay: Induction of apoptosis in OGD/R-induced rat H9c2 cells assessed as total apoptotic cells at 100 uM preincubated with compound for 24 hrs followed by treatment under OGD condition by Annexin V-FITC staining based flow cytometric analysis relative to control; type: functional

Work on `C[C@H]([C@@H]1CCC(C)(C)O1)[C@H]1CC[C@@]2(C)C3=C(CC[C@]12C)[C@@]1(C)CC[C@H](O)C(C)(C)[C@@H]1CC3` yielded an Activity [1] of 10.8%.
`C[C@@H]([C@H]1CC[C@@]2(C)C3=C(CC[C@]12C)[C@@]1(C)CC[C@H](O)C(C)(C)[C@@H]1CC3)[C@H]1CCC(C)(C)O1` gave an Activity [2] of 17.4%, an Activity [3] of 0.52% and an Activity [1] of 18.7%. For the same compound, the Activity [4] was 11.4%, the viability at 10 µM [5] was 85.9% and the Activity [6] was 14.5%. The Activity [7] was 8.97%, the Activity [8] was 13.3% and the Activity [9] was 2.55%. It also gave an Activity [10] of 5.12%, an Activity [11] of 0.035% and an Activity [12] of 90%. It also gave a viability at 5 µM [13] of 83.7%.
`C[C@@H]([C@H]1CC[C@@]2(C)C3=CC[C@H]4C(C)(C)[C@@H](O)CC[C@]4(C)C3=CC[C@]12C)[C@H]1C[C@@H](O)C(C)(C)O1` was tested, and the Activity [14] was “inactive”.
For `C[C@@H]([C@H]1CC[C@@]2(C)C3=C(CC[C@]12C)[C@@]1(C)CC[C@H](O)C(C)(C)[C@@H]1CC3)[C@H]1C[C@H](O)C(C)(C)O1`, the Activity [14] was “inactive”.
In the case of `C[C@H]([C@@H]1C[C@H](O)C(C)(C)O1)[C@H]1CC[C@@]2(C)C3=CC[C@H]4C(C)(C)[C@@H](O)CC[C@]4(C)C3=CC[C@]12C`, the Activity [14] is reported as “inactive”.
For `C[C@@H]([C@H]1CC[C@@]2(C)C3=C(CC[C@]12C)[C@@]1(C)CC[C@H](O)C(C)(C)[C@@H]1CC3)[C@H]1C[C@@H](O)C(C)(C)O1`, the Activity [14] was “inactive”.
In the case of `C[C@H]([C@@H]1C[C@H](O)C(C)(C)O1)[C@H]1CC[C@@]2(C)C3=C(CC[C@]12C)[C@@]1(C)CC[C@H](O)C(C)(C)[C@@H]1CC3`, the Activity [14] is reported as “inactive”.
With `CC1=Nc2ccc(Cl)cc2S(=O)(=O)N1` [DIAZOXIDE] the Activity [15] was 0.58%, the Activity [16] was 14.9% and the Activity [17] was 5.41%. It also gave an Activity [18] of 12.7%, a viability at 100 µM [19] of 81.3% and an Activity [20] of 17.3%.
In the case of `C=C(C)[C@@H]1CC=C2C(=CC[C@]3(C)[C@@H]([C@H](C)[C@H]4CCC(C)(C)O4)CC[C@@]23C)[C@@]1(C)CCC(=O)O`, the Activity [1] is reported as 17.7% and the Activity [4] is reported as 6.4%.
For `C[C@H]([C@@H]1C[C@@H](O)C(C)(C)O1)[C@H]1CC[C@@]2(C)C3=CC[C@H]4C(C)(C)[C@@H](O)CC[C@]4(C)C3=CC[C@]12C`, the Activity [14] was “inactive”.
With `C[C@@H]([C@H]1CC[C@@]2(C)C3=CC[C@H]4C(C)(C)[C@@H](O)CC[C@]4(C)C3=CC[C@]12C)[C@H]1C[C@H](O)C(C)(C)O1` the Activity [14] was “inactive”.
In the case of `C[C@H]([C@@H]1C[C@@H](O)C(C)(C)O1)[C@H]1CC[C@@]2(C)C3=C(CC[C@]12C)[C@@]1(C)CC[C@H](O)C(C)(C)[C@@H]1CC3`, the Activity [14] is reported as “inactive”.
`C[C@@H]([C@H]1CC[C@@]2(C)C3=CC[C@H]4C(C)(C)[C@@H](O)CC[C@]4(C)C3=CC[C@]12C)[C@H]1CCC(C)(C)O1` showed an Activity [1] of 11.4%.
Compound `C[C@H]([C@@H]1CCC(C)(C)O1)[C@H]1CC[C@@]2(C)C3=CC[C@H]4C(C)(C)[C@@H](O)CC[C@]4(C)C3=CC[C@]12C` has an Activity [1] of 10.6%.

— ChEMBL document CHEMBL5226393, “Semisynthesis of 22,25-Epoxylanostane Triterpenoids: Structure Revision and Protective Effects against Oxygen-Glucose Deprivation/Reoxygenation Injury in H9c2 Cells” (2023)
